US9802937B2, “Substituted pyrazolo{4,3-D}pyrimidines as kinase inhibitors” (ORIGENIS GMBH, priority 2011, dated 2017)

What was measured:
[1] = target: MYLK (Homo sapiens, UniProt Q15746); assay: MYLK Assay (LanthaScreen Eu Kinase Binding Assay); details: 5 nM MYLK, 30 nM tracer 236, RT 1 h; read-out: MYLK Activities: IC50
Method: In the assay LanthaScreen™ Eu Kinase Binding Assay by Invitrogen Corporation (Carlsbad) the effect of invention of a compound on the phosphorylation is determined by measurement of fluorescence intensity emission ratio based on the binding and displacement of a proprietary, Alexa Fluor® 647-labeled, ATP-competitive kinase inhibitor scaffold (kinase tracer) to the kinase of interest as described above.
To the wells of an 384 well small volume plate (Greiner, Frickenhausen) are added (i) the compound under test in 5% is DMSO/distilled water (5 μl), (ii) 5 μl of the kinase antibody mixture resulting in a final concentration 5 nM MYLK, 2 nM EU-Anti-GST antibody in 1× kinase buffer A. The reaction was started with addition of (iii) 5 μl resulting in a final concentration of 30 nM tracer 236. The assay plate was incubated at RT for 1 h and fluorescence intensity readings were collected using a TECAN M1000 at two wavelengths of λex 340/λem 615 nm and λex 340/λem 665 nm with a delay time of 100 μs and an integration time of 200 μs after 60 minutes. The emission ratio was calculated by division of the acceptor/tracer emission ([…]) by the antibody/donor emission ([…]). The inhibitor concentration was plotted versus the emission ratio to determine the IC50 using XLFit 5.0 (IDBS, Guildford) to fit to a sigmoidal dose response curve with a variable slope.

[2] = target: LRRK2 (Homo sapiens, UniProt Q5S007); assay: LRRK2-LRRK2 G2019S-Assay (LanthaScreen Eu Kinase Binding Assay); details: 5 nM LRRK2 or their mutants, 10 nM tracer 236, RT 1 h; read-out: LRRK2 Activities: IC50
How it was run: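 TR-FRET tracer-displacement binding assay with 5 nM LRRK2 or mutant, 2 nM Eu-anti-GST antibody and 10 nM tracer 236 in kinase buffer A. Incubated 1 h at RT; 665/615 nm emission ratio read (ex 340 nm). IC50 from variable-slope sigmoidal fit.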

[3] = target: T1, SYK kinase (Homo sapiens, UniProt P43405); assay: SYK Assay (OMNIA KINASE ASSAY, SOX peptide fluorescence); format: biochemical; details: apparent Ki calculated from the IC50 using the Cheng-Prusoff equation; 1 mM ATP, 30° C.; read-out: SYK Activities: Ki
T1 construct: purchased Invitrogen, Carlsbad
How it was run: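 Continuous Omnia assay: SYK phosphorylation of SOX-labelled Tyr 7 peptide (10 µM) with 1 mM ATP and 0.2 mM DTT at 30 °C. Fluorescence (ex 360/em 485 nm) read every 30 s for 30 min. Reaction velocity versus inhibitor concentration gives IC50, converted to apparent Ki by Cheng-Prusoff.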

Sequence of MYLK (Q15746 whole entry): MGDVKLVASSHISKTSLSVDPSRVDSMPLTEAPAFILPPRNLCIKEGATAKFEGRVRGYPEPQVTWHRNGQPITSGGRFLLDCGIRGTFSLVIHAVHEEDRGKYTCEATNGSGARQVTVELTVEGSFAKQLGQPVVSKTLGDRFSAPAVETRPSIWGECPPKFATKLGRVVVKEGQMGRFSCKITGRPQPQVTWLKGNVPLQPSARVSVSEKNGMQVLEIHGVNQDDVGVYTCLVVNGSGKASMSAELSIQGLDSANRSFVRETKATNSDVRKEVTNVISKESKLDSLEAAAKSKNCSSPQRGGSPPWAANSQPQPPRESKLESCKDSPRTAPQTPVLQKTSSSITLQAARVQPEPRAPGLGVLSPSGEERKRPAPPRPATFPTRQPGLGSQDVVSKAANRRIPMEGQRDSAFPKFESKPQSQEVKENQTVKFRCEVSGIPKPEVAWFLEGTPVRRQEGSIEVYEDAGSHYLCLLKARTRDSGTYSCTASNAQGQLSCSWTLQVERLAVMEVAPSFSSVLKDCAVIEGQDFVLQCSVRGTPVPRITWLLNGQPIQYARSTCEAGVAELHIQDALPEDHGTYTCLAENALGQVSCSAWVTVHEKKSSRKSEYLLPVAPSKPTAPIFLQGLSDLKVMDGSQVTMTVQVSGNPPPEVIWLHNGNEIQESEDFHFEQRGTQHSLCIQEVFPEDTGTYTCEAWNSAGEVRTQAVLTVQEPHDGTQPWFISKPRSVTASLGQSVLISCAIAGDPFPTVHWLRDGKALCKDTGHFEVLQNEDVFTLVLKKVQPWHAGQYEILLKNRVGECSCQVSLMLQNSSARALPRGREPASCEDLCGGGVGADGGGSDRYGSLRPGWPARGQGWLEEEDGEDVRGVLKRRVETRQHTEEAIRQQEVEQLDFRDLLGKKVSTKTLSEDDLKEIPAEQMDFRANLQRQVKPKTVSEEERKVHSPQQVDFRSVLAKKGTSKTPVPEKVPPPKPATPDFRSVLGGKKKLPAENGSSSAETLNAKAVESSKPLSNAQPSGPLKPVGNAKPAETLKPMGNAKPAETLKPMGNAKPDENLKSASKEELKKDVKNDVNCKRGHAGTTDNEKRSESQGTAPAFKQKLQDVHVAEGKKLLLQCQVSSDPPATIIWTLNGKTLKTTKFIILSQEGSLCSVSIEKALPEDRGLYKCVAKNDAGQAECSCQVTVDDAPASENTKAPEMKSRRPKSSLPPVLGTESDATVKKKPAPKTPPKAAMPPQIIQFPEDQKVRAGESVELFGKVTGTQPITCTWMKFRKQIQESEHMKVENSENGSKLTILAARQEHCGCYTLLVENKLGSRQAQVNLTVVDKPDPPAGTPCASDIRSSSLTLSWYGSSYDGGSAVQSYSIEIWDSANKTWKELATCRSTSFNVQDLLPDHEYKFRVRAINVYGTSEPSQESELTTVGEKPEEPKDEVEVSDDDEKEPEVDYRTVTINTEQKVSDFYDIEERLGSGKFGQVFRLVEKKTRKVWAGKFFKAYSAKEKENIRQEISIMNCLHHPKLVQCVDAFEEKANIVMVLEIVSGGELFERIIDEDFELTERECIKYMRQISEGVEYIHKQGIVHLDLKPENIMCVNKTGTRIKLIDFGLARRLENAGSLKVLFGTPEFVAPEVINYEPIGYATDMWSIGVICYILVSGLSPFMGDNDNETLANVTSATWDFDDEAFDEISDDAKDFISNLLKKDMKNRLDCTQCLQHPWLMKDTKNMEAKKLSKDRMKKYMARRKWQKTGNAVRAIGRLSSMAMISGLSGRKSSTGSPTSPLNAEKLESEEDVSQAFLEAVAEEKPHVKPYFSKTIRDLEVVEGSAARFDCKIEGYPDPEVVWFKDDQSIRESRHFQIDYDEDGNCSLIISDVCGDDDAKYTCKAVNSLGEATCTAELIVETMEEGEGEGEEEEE
Sequence of LRRK2 (Q5S007 970-2527 limits assumed): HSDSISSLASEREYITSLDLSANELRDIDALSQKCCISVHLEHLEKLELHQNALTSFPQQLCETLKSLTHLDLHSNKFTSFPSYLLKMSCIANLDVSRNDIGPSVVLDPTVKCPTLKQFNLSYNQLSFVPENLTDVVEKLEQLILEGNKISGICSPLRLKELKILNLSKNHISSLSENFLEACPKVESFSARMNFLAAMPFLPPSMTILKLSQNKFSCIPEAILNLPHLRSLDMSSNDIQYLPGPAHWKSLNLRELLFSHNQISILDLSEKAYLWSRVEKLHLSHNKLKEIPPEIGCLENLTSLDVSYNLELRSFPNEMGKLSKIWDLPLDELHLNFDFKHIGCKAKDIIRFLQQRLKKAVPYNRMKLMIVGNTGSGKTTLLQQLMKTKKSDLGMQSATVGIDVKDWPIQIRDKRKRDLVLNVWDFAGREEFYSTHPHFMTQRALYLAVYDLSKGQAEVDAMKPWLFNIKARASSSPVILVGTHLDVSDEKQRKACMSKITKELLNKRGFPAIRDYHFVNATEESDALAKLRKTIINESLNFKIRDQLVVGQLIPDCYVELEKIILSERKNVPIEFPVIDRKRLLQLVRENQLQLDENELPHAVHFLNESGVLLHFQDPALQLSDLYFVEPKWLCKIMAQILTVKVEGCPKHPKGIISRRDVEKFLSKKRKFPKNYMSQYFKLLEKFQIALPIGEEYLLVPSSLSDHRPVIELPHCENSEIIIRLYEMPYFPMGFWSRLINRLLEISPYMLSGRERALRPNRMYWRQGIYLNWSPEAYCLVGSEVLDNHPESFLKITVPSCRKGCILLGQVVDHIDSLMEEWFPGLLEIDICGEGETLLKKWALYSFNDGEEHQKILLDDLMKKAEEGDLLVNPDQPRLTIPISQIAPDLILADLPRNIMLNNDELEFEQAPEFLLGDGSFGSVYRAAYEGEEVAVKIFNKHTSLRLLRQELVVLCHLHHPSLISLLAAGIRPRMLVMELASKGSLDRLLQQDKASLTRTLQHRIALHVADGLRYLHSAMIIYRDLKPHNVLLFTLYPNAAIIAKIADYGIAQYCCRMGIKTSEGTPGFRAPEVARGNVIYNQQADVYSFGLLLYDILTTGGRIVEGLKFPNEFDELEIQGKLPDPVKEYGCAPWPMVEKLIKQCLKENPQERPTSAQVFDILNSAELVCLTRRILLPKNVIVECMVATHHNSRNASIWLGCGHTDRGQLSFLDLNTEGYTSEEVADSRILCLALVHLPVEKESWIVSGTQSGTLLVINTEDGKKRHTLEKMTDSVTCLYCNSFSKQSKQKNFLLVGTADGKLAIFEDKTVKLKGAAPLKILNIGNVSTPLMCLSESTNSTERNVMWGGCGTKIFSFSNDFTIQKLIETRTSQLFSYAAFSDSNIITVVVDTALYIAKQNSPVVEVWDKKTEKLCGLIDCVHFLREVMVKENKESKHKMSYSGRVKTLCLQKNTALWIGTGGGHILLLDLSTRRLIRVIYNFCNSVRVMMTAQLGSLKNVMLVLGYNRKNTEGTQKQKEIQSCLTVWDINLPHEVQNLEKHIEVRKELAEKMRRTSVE

Row | SMILES | IC50 [1] | IC50 [2] | Ki [3]
1 | c1csc(-c2nc(Nc3ccc4c(c3)NCCO4)c3[nH]ncc3n2)c1 [Example #91, N-(5-(thiophen-2-yl)-1H-pyrazolo[4,3-d]pyrimidin-7-yl)-3,4-dihydro-2H-benzo[b][1,4]oxazin-6-amine] | < 5000 nM | 10 to 100 nM | < 10 nM
2 | COc1cc(C(=O)N2CCC(N3CCN(C)CC3)CC2)ccc1Nc1nc(-c2cccs2)nc2cn[nH]c12 [Example #139, (3-methoxy-4-((5-(thiophen-2-yl)-1H-pyrazolo[4,3-d]pyrimidin-7-yl)amino)phenyl)(4-(4-methylpiperazin-1-yl)piperidin-1-yl)methanone] | < 5000 nM | 10 to 100 nM | 10 to 100 nM
3 | COc1ccc(-c2nc(Nc3ccc(OC)c(OC)c3)c3[nH]ncc3n2)cc1 [Example #58, N-(3,4-dimethoxyphenyl)-5-(4-methoxyphenyl)-1H-pyrazolo[4,3-d]pyrimidin-7-amine] | < 5000 nM | 100 to 1000 nM | < 10 nM
4 | Oc1cccc(Nc2nc(-c3cccs3)nc3cn[nH]c23)c1 [Example #83, 3-((5-(thiophen-2-yl)-1H-pyrazolo[4,3-d]pyrimidin-7-yl)amino)phenol] | < 5000 nM | 100 to 1000 nM | 10 to 100 nM
5 | CS(=O)(=O)c1ccccc1Nc1nc(-c2ccccc2F)nc2cn[nH]c12 [Example #277, 5-(2-fluorophenyl)-N-(2-(methylsulfonyl)phenyl)-1H-pyrazolo[4,3-d]pyrimidin-7-amine] | < 5000 nM | – | 100 to 1000 nM
6 | CS(=O)(=O)c1cccc(Nc2nc(-c3cccs3)nc3cn[nH]c23)c1 [Example #254, N-(3-(methylsulfonyl)phenyl)-5-(thiophen-2-yl)-1H-pyrazolo[4,3-d]pyrimidin-7-amine] | < 5000 nM | 100 to 1000 nM | 10 to 100 nM
7 | COc1cccc(Nc2nc(-c3ccccc3)nc3cn[nH]c23)c1 [Example #8, N-(3-methoxyphenyl)-5-phenyl-1H-pyrazolo[4,3-d]pyrimidin-7-amine] | < 5000 nM | – | 10 to 100 nM
8 | COc1ccc(Nc2nc(-c3ccc4cn[nH]c4c3)nc3cn[nH]c23)cc1OC [Example #280, N-(3,4-dimethoxyphenyl)-5-(1H-indazol-6-yl)-1H-pyrazolo[4,3-d]pyrimidin-7-amine] | < 5000 nM | 10 to 100 nM | < 10 nM
9 | Cc1nc2cc(Nc3nc(-c4ccc5c(c4)NC(=O)CO5)nc4cn[nH]c34)ccc2[nH]1 [Example #289, 6-(7-((2-methyl-1H-benzo[d]imidazol-5-yl)amino)-1H-pyrazolo[4,3-d]pyrimidin-5-yl)-2H-benzo[b][1,4]oxazin-3(4H)-one] | < 5000 nM | – | 10 to 100 nM
10 | CS(=O)(=O)c1cccc(Nc2nc(-c3ccccc3F)nc3cn[nH]c23)c1 [Example #276, 5-(2-fluorophenyl)-N-(3-(methylsulfonyl)phenyl)-1H-pyrazolo[4,3-d]pyrimidin-7-amine] | < 5000 nM | – | 10 to 100 nM
11 | c1ccc(-c2nc(Nc3cc(C4CC4)[nH]n3)c3[nH]ncc3n2)cc1 [Example #57, N-(5-cyclopropyl-1H-pyrazol-3-yl)-5-phenyl-1H-pyrazolo[4,3-d]pyrimidin-7-amine] | < 5000 nM | – | 10 to 100 nM
12 | c1cc(Nc2nc(-c3cc[nH]n3)nc3cn[nH]c23)n[nH]1 [Example #45, N,5-di(1H-pyrazol-3-yl)-1H-pyrazolo[4,3-d]pyrimidin-7-amine] | < 5000 nM | – | 100 to 1000 nM
13 | O=S(=O)(CCO)c1cccc(Nc2nc(-c3cccs3)nc3cn[nH]c23)c1 [Example #255, 2-((3-((5-(thiophen-2-yl)-1H-pyrazolo[4,3-d]pyrimidin-7-yl)amino)phenyl)sulfonyl)ethan-1-ol] | < 5000 nM | – | 100 to 1000 nM
14 | Cc1nc2cc(Nc3nc(-c4cccc(S(C)(=O)=O)c4)nc4cn[nH]c34)ccc2[nH]1 [Example #252, N-(2-methyl-1H-benzo[d]imidazol-5-yl)-5-(3-(methylsulfonyl)phenyl)-1H-pyrazolo[4,3-d]pyrimidin-7-amine] | < 5000 nM | – | 10 to 100 nM

Other lines, results leading:

Row | IC50 [1] | IC50 [2] | Ki [3] | SMILES
15 | < 5000 nM | 100 to 1000 nM | < 10 nM | CC(=O)N1CCN(c2ccc(Nc3nc(-c4cccc(NS(C)(=O)=O)c4)nc4cn[nH]c34)cc2)CC1 [Example #191, N-(3-(7-((4-(4-acetylpiperazin-1-yl)phenyl)amino)-1H-pyrazolo[4,3-d]pyrimidin-5-yl)phenyl)methanesulfonamide]
16 | < 5000 nM | 100 to 1000 nM | 10 to 100 nM | O=C(c1ccc(Nc2nc(-c3cccs3)nc3cn[nH]c23)cc1)N1CCOCC1 [Example #294, morpholino(4-((5-(thiophen-2-yl)-1H-pyrazolo[4,3-d]pyrimidin-7-yl)amino)phenyl)methanone]
17 | < 5000 nM | 100 to 1000 nM | < 10 nM | COc1cccc(-c2nc(Nc3ccc(CN4CCN(C)CC4)cc3)c3[nH]ncc3n2)c1 [Example #131, 5-(3-methoxyphenyl)-N-(4-((4-methylpiperazin-1-yl)methyl)phenyl)-1H-pyrazolo[4,3-d]pyrimidin-7-amine]
18 | < 5000 nM | – | < 10 nM | CN1CCN(c2ccc(Nc3nc(-c4cc(C(=O)O)cs4)nc4cn[nH]c34)cc2)CC1 [Example #175, 5-(7-((4-(4-methylpiperazin-1-yl)phenyl)amino)-1H-pyrazolo[4,3-d]pyrimidin-5-yl)thiophene-3-carboxylic acid]
19 | < 5000 nM | 10 to 100 nM | < 10 nM | O=S1(=O)CCN(c2ccc(Nc3nc(-c4ccsc4)nc4cn[nH]c34)cc2)CC1 [Example #143, 4-(4-((5-(thiophen-3-yl)-1H-pyrazolo[4,3-d]pyrimidin-7-yl)amino)phenyl)thiomorpholine 1,1-dioxide]
20 | < 5000 nM | 100 to 1000 nM | 10 to 100 nM | Fc1ccccc1-c1nc(Nc2ccc(N3CCN(C4CC4)CC3)cc2)c2[nH]ncc2n1 [Example #279, N-(4-(4-cyclopropylpiperazin-1-yl)phenyl)-5-(2-fluorophenyl)-1H-pyrazolo[4,3-d]pyrimidin-7-amine]
21 | < 5000 nM | 100 to 1000 nM | < 10 nM | CN1CCN(c2ccc(Nc3nc(-c4ccc5cn[nH]c5c4)nc4cn[nH]c34)cc2)CC1 [Example #248, 5-(1H-indazol-6-yl)-N-(4-(4-methylpiperazin-1-yl)phenyl)-1H-pyrazolo[4,3-d]pyrimidin-7-amine]
22 | < 5000 nM | 100 to 1000 nM | < 10 nM | CC(=O)N1CCN(c2ccc(Nc3nc(-c4cccs4)nc4cn[nH]c34)cc2)CC1 [Example #138, 1-(4-(4-((5-(thiophen-2-yl)-1H-pyrazolo[4,3-d]pyrimidin-7-yl)amino)phenyl)piperazin-1-yl)ethan-1-one]
23 | < 5000 nM | 10 to 100 nM | < 10 nM | CN1CCN(c2ccc(Nc3nc(-c4cccc(S(N)(=O)=O)c4)nc4cn[nH]c34)cc2)CC1 [Example #182, 3-(7-((4-(4-methylpiperazin-1-yl)phenyl)amino)-1H-pyrazolo[4,3-d]pyrimidin-5-yl)benzenesulfonamide]
24 | < 5000 nM | 10 to 100 nM | < 10 nM | CN1CCN(c2ccc(Nc3nc(-c4ccsc4)nc4cn[nH]c34)cn2)CC1 [Example #118, N-(6-(4-methylpiperazin-1-yl)pyridin-3-yl)-5-(thiophen-3-yl)-1H-pyrazolo[4,3-d]pyrimidin-7-amine]
25 | < 5000 nM | – | 10 to 100 nM | Fc1ccc(-c2nc(Nc3ccc(N4CCOCC4)cc3)c3[nH]ncc3n2)c(F)c1 [Example #286, 5-(2,4-difluorophenyl)-N-(4-morpholinophenyl)-1H-pyrazolo[4,3-d]pyrimidin-7-amine]
26 | < 5000 nM | – | 10 to 100 nM | O=C1COc2ccc(-c3nc(Nc4ccc(N5CCOCC5)cc4)c4[nH]ncc4n3)cc2N1 [Example #288, 6-(7-((4-morpholinophenyl)amino)-1H-pyrazolo[4,3-d]pyrimidin-5-yl)-2H-benzo[b][1,4]oxazin-3(4H)-one]
27 | < 5000 nM | – | < 10 nM | COc1ccc(-c2nc(Nc3ccc(C(=O)N4CCCC4)cc3)c3[nH]ncc3n2)cc1 [Example #160, (4-((5-(4-methoxyphenyl)-1H-pyrazolo[4,3-d]pyrimidin-7-yl)amino)phenyl)(pyrrolidin-1-yl)methanone]
28 | < 5000 nM | – | < 10 nM | CN1CCN(c2ccc(Nc3nc(-c4ccc(C(=O)O)cc4)nc4cn[nH]c34)cc2)CC1 [Example #241, 4-(7-((4-(4-methylpiperazin-1-yl)phenyl)amino)-1H-pyrazolo[4,3-d]pyrimidin-5-yl)benzoic acid]
